From publication PMC11275795 (bioRxiv, 2024) come the findings set out here.

The target of this experiment is FIGNL1∆N (Homo sapiens, UniProt Q6PIW4). Particulars: activity enhanced by RAD51 or its N-terminal peptide.
Sequence of FIGNL1∆N (Q6PIW4 287-674): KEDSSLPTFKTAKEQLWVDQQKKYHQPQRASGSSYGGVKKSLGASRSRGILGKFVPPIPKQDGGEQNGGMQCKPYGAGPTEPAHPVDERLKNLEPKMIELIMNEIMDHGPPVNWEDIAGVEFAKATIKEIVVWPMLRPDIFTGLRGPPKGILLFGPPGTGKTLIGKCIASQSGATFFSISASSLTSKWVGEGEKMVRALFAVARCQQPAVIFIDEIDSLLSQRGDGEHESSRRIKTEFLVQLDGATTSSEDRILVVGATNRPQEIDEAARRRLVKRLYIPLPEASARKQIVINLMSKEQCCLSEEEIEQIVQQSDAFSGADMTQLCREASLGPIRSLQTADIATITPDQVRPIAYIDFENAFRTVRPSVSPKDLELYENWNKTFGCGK

Turning to `Nc1ncnc2c1ncn2[C@@H]1O[C@H](COP(=O)(O)OP(=O)(O)OP(=O)(O)O)[C@@H](O)[C@H]1O` [ATP], the ATPase assay result is on record as “The ATPase activity of FIGNL1∆N is enhanced in the presence of RAD51”.
